Target: T1, 5-Lipoxygenase (Homo sapiens, UniProt P09917)
T1 construct: endogenous in cells; host or cells: human heparinized whole blood (blood leukocytes), stimulated with calcium ionophore A23187
T1 sequence (P09917 1-674): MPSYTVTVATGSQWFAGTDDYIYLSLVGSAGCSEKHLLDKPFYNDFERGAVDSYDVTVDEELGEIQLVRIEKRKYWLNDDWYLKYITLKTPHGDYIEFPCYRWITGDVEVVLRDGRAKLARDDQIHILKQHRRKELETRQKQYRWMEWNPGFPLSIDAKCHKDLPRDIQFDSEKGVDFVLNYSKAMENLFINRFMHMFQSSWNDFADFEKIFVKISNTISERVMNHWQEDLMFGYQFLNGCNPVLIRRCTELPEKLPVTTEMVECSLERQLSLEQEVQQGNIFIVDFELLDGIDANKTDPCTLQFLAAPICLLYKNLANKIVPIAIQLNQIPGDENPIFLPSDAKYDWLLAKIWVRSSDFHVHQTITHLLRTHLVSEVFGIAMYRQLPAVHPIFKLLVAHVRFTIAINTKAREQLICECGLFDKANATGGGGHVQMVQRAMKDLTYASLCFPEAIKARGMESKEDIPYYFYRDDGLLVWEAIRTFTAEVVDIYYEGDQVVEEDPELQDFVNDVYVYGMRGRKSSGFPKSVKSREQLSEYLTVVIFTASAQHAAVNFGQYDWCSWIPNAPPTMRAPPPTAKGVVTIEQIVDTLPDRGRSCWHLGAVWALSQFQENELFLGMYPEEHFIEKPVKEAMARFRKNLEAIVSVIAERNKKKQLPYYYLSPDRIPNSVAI
Test: Inhibition of calcium ionophore-induced LTB4 biosynthesis in human whole blood
Assay type: cell-based
Conditions: A23187 8.3 μM; for IC50: human heparinized whole blood, 15 min preincubation at 37° C., 30 min, LTB4 by radioimmunoassay, read-out: IC50, in vitro inhibitory potency against 5-lipoxygenase from stimulated LTB4 formation in human whole blood
Method: Inhibition of leukotriene biosynthesis was evaluated in an assay, involving calcium ionophore-induced LTB4 biosynthesis expressed human whole blood. Human heparinized whole blood was preincubated with test compounds or vehicle for 15 min at 37° C. followed by calcium ionophore A23187 challenge (final concentration of 8.3 μM) and the reaction terminated after 30 min by adding two volumes of methanol containing prostaglandin B2 as an internal recovery standard. The methanol extract was analyzed for LTB4 using a commercially available radioimmunoassay.

[1] = human whole blood, read-out: % inhibition of stimulated LTB4 formation in human whole blood

SMILES: COC1(C#CCOCc2ccc3ccccc3c2)CCOCC1 [Example 1, 4-methoxy-4-[3-((napth-2-yl)methoxy)-prop-1-ynyl]tetrahydropyran]
- IC50: 3800 nM

SMILES: COC1(C#CC(C)OCc2ccc3ccccc3c2)CCOCC1 (centres unmarked) [Example 2, 4-methoxy-4-[3-methyl-3-(((napth-2yl)methoxy))-prop-1-ynyl]tetrahydropyran]
- inhibition at 12.5 µM [1]: 95%

SMILES: COC1(/C=C/COCc2ccc3ccccc3c2)CCOCC1 [Example 3]
- IC50: 700 nM

SMILES: COC1(/C=C/C(C)OCc2ccc3ccccc3c2)CCOCC1 (stereo not drawn) [Example 4, 4-methoxy-4-[3-methyl-3-((napth-2yl)methoxy)- trans-prop-1-enyl]tetrahydropyran]
- inhibition at 12.5 µM [1]: 99%

SMILES: COC1(CCCOCc2ccc3ccccc3c2)CCOCC1 [Example 5, 4-methoxy-4-[3-((napth-2yl)methoxy)-prop-1-yl]tetrahydropyran]
- IC50: 1500 nM

SMILES: COC1(/C=C/COCc2ccc3c(ccc(=O)n3C)c2)CCOCC1 [Example 6, 4-methoxy-4-[3-((1,2-dihydro-1-methyl-2-oxoquinolin-6-yl)methoxy)-trans-prop-1-enyl]tetrahydropyran]
- inhibition at 0.39 µM [1]: 51%

SMILES: COC1(/C=C/COCc2ccc(-c3ccccc3)cc2)CCOCC1 [Example 8, 4-methoxy-4-[3-((4-phenylphen-1-yl)methoxy)-trans-prop-1-enyl]tetrahydropyran]
- inhibition at 12.5 µM [1]: 11%

SMILES: COC1(/C=C/CSc2ccc3ccccc3c2)CCOCC1 [Example 19, 4-methoxy-4-[3-(napth-2-ylthioxy)-trans-prop-1-enyl]tetrahydropyran]
- inhibition at 0.1 µM (at 0.10 μM, human whole blood, read-out: % inhibition of stimulated LTB4 formation in human whole blood): 34%

SMILES: COC1(/C=C/C(=O)NCc2ccc3ccccc3c2)CCOCC1 [Example 20, 3-(4-methoxytetrahydropyran-4-yl)-N-((napth-2-yl)methyl)-trans-propionyl amide]
- IC50: 260 nM

SMILES: COC1(/C=C/C(=O)NCc2ccc3c(ccc(=O)n3C)c2)CCOCC1 [Example 21]
- inhibition at 0.39 µM [1]: 50%

SMILES: COC1(/C=C/COCC#Cc2ccccn2)CCOCC1 [Example 22, 4-methoxy-4-[3-((2-(pyrid-2-yl)ethynyl)methoxy)-trans-propen-1-yl]tetrahydropyran]
- inhibition at 12.5 µM [1]: 18%
